*1 amine or outer side, *2 acyl side, *3 side chain or, on linkers, in order; H or OH if unused. Where a SMILES comes first, the peptide text is derived from it. Bridges are numbered along the chain shown (N, C = ends). [ ]: non-standard residue; d: D form. X1 = O=C([C@@H]1C[C@H](n2cc(-c3ccc(-c4cccs4)cc3)nn2)CN1[*:1])[*:2]; Trp(5-Br) = N[C@@H](Cc1c[nH]c2ccc(Br)cc12)C(=O)O; Trp(1-Me) = Cn1cc(C[C@H](N)C(=O)O)c2ccccc21
Target: T1, YU2 gp120 (Human immunodeficiency virus type 1 group M subtype B, UniProt P35961)
T1 construct: The DNA for gp120YU-2 in pcDNA3.1 vector for transient transfection; made in house; host or cells: HEK-293F
Type: binding, HIV-1
Text: A state-of-the-art Biacore S200 SPR optical biosensor, which can resolve dissociation rates of 0.1–1.0 s^−1, was employed to measure the YU2 gp120 binding kinetics of cPT’s. […] The insets in Fig. 3 show the binding isotherms plotted from the binding signals at steady state, as a function of peptide concentration. Reproducibility of the SPR binding assays was verified by running experiments at gp120 densities ranging from 10 to 29 RU/kDa. […] The calculated apparent (KD), the steady state affinities (eq KD) and experimental Rmax or maximum binding capacities for each gp120 surface are reported.
SPR experiments were performed on a Biacore S200 biosensor (Cytiva Global Life Sciences Solutions) at 25°C using PBS-P (10 mM Phosphate, 150 mM NaCl, pH 7.4, 0.005% P-20 and 2 or 5%DMSO) as the running and sample buffers. […] The 9 to 10 cPT concentrations were injected in duplicate spanning 1000-fold (~ 0.001 to 2.0 μM) at a flow rate of 75–100 μL/min where associations were monitored for 3 minutes and the final dissociation phase in running buffer monitored for 5 minutes for complete dissociation or by injecting two 9-second pulses of 10 mM glycine pH 2.0 to remove any bound analyte. […]

Row | SMILES | equilibrium binding isotherm KD, fold lower (affinity) versus AAR029N2 (SPR steady state isotherm, Fig. 3C inset) [fold] | increase in dissociation rate relative to parent peptide (SPR, MG-I-13 vs AAR029N2, MG-II-55 vs MG-II-20) [fold]
1 | CC[C@H](C)[C@@H]1NC(=O)[C@H](CC(N)=O)NC(=O)[C@@H](N)CC(=O)NCCCC[C@@H](C(N)=O)NC(=O)[C@H](Cc2cn(C)c3ccccc23)NC(=O)[C@@H]2C[C@H](n3cc(-c4ccc(-c5cccs5)cc4)nn3)CN2C1=O [MG-II-39] (H-DNI[X1][Trp(1-Me)]K-NH2; lactam 1-6; N-terminus and C-terminus assumed) | 5 | 
2 | CC[C@H](C)[C@@H]1NC(=O)[C@H](CC(N)=O)NC(=O)[C@@H](N)CC(=O)NCCCC[C@@H](C(N)=O)NC(=O)[C@H](Cc2c[nH]c3ccc(Br)cc23)NC(=O)[C@@H]2C[C@H](n3cc(-c4ccc(-c5cccs5)cc4)nn3)CN2C1=O [MG-I-13] (H-DNI[X1][Trp(5-Br)]K-NH2; lactam 1-6; N-terminus and C-terminus assumed) |  | 2.5

Reference: publication PMC10153383, “Pharmacophore Variants of the Macrocyclic Peptide Triazole Inactivator of HIV-1 Env” (Research Square, 2023)
